Consider 21 compounds from ChEMBL document CHEMBL2440003, “Novel BACE1 inhibitors with a non-acidic heterocycle at the P1' position” (Bioorg Med Chem, 2013).

Experiment [1] concerns the target T1, Beta-secretase 1 (Homo sapiens, UniProt P56817). Description: Inhibition of recombinant human BACE1 at 2 uM by FRET analysis.
A further experiment addresses T2, Renin (Homo sapiens, UniProt P00797).
T2 sequence (P00797 whole entry): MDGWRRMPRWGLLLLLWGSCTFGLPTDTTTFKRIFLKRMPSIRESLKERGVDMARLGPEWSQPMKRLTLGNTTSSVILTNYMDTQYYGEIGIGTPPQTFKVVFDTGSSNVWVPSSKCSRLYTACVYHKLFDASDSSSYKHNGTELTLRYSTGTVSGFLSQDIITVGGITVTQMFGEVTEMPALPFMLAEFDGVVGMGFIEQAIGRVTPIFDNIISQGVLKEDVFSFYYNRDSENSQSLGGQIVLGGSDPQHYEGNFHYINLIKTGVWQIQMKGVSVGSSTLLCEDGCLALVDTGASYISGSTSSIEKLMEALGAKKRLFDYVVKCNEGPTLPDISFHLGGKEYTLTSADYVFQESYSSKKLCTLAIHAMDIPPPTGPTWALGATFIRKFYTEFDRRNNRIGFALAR
Description: Inhibition of human renin.

Experiment [2] concerns the target T1, Beta-secretase 1. In words: Inhibition of recombinant human BACE1 at 0.2 uM by FRET analysis.
For experiment [3], the target named is T1, Beta-secretase 1. In words: Inhibition of recombinant human BACE1 by FRET analysis.

A value given as a limit tells only on which side of the number the result lay.

T1 sequence (P56817 whole entry): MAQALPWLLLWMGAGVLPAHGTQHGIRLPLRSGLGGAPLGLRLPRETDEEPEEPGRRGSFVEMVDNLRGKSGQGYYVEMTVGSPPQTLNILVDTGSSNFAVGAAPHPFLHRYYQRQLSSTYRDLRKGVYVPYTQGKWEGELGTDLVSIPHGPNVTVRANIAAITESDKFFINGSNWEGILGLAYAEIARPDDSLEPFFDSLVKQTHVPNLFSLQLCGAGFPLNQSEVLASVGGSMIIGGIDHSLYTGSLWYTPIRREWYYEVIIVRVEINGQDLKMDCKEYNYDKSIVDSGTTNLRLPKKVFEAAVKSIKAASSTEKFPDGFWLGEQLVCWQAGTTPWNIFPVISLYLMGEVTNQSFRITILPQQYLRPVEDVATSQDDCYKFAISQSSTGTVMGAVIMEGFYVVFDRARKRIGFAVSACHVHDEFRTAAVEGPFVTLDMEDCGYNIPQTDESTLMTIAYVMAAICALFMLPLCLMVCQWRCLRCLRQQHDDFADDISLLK

Take `C[C@@H](NC(=O)c1cc(C(=O)N[C@@H](Cc2ccccc2)[C@@H](O)C(=O)Nc2nnc(-c3ccncc3)s2)cc(N(C)S(C)(=O)=O)c1)c1ccccc1`: the inhibition at Beta-secretase 1 [1] is 49%.

On to `C[C@@H](NC(=O)c1cc(C(=O)N[C@@H](Cc2ccccc2)[C@H](O)C(=O)Nc2nccs2)cc(N(C)S(C)(=O)=O)c1)c1ccccc1`, for which the inhibition at Beta-secretase 1 [1] worked out at 19%.

Turning to `COC(=O)c1csc(NC(=O)[C@H](O)[C@H](Cc2ccccc2)NC(=O)c2cc(C(=O)N[C@H](C)c3ccccc3)cc(N(C)S(C)(=O)=O)c2)n1`, the inhibition at Beta-secretase 1 [1] was 30%.

On to `C[C@@H](NC(=O)c1cc(C(=O)N[C@@H](Cc2ccccc2)[C@H](O)CNC2CC2)cc(N(C)S(C)(=O)=O)c1)c1ccccc1`, for which the IC50 at Renin was > 50000 nM.

As for `C[C@@H](NC(=O)c1cc(C(=O)N[C@@H](Cc2ccccc2)[C@@H](O)C(=O)Nc2nncs2)cc(N(C)S(C)(=O)=O)c1)c1ccccc1`, the inhibition was 83% on Beta-secretase 1 [1] and 39% on Beta-secretase 1 [2].

For `CCSc1nnc(NC(=O)[C@H](O)[C@H](Cc2ccccc2)NC(=O)c2cc(C(=O)N[C@H](C)c3ccccc3)cc(N(C)S(C)(=O)=O)c2)s1`, the inhibition on Beta-secretase 1 [1] was 86%; on Beta-secretase 1 [2], 45%.

Take `C[C@@H](NC(=O)c1cc(C(=O)N[C@@H](Cc2ccccc2)[C@@H](O)C(=O)Nc2ncc([N+](=O)[O-])s2)cc(N(C)S(C)(=O)=O)c1)c1ccccc1`: the inhibition at Beta-secretase 1 [1] stood at 96%; at Beta-secretase 1 [2] it was 73%.

As to `C[C@@H](NC(=O)c1cc(C(=O)N[C@@H](Cc2ccccc2)[C@@H](O)C(=O)Nc2nccs2)cc(N(C)S(C)(=O)=O)c1)c1ccccc1`, the inhibition on Beta-secretase 1 [1] worked out at 48%.

`Cc1nnc(NC(=O)[C@H](O)[C@H](Cc2ccccc2)NC(=O)c2cc(C(=O)N[C@H](C)c3ccccc3)cc(N(C)S(C)(=O)=O)c2)s1`: the inhibition on Beta-secretase 1 [1] came out at 90%; on Beta-secretase 1 [2], 50%.

`COC(=O)c1cnc(NC(=O)[C@H](O)[C@H](Cc2ccccc2)NC(=O)c2cc(C(=O)N[C@H](C)c3ccccc3)cc(N(C)S(C)(=O)=O)c2)s1`: the inhibition stood at 87% on Beta-secretase 1 [1] and 56% on Beta-secretase 1 [2].

Turning to `C[C@@H](NC(=O)c1cc(C(=O)N[C@@H](Cc2ccccc2)[C@H](O)C(=O)Nc2nncs2)cc(N(C)S(C)(=O)=O)c1)c1ccccc1`, the inhibition at Beta-secretase 1 [1] came to 38%.

On to `CCc1nnc(NC(=O)[C@H](O)[C@H](Cc2ccccc2)NC(=O)c2cc(C(=O)N[C@H](C)c3ccccc3)cc(N(C)S(C)(=O)=O)c2)s1`, for which the inhibition at Beta-secretase 1 [1] was 88%; at Beta-secretase 1 [2] it was 51%.

For `C[C@@H](NC(=O)c1cc(C(=O)N[C@@H](Cc2ccccc2)[C@@H](O)C(=O)Nc2nnc(Br)s2)cc(N(C)S(C)(=O)=O)c1)c1ccccc1`, at Beta-secretase 1 [3], the IC50 came out at 26 nM. Besides, the inhibition came to 97% on Beta-secretase 1 [1] and 79% at Beta-secretase 1 [2].

`Cc1nnc(NC(=O)[C@@H](O)[C@H](Cc2ccccc2)NC(=O)c2cc(C(=O)N[C@H](C)c3ccccc3)cc(N(C)S(C)(=O)=O)c2)s1`: the inhibition on Beta-secretase 1 [1] came out at 58%.

`C[C@@H](NC(=O)c1cc(C(=O)N[C@@H](Cc2ccccc2)[C@@H](O)C(=O)Nc2nnc(C(F)(F)F)s2)cc(N(C)S(C)(=O)=O)c1)c1ccccc1`: the inhibition on Beta-secretase 1 [1] stood at 96%; at Beta-secretase 1 [2], 75%.

Turning to `C[C@@H](NC(=O)c1cc(C(=O)N[C@@H](Cc2ccccc2)[C@@H](O)C(=O)Nc2nc3ccccc3s2)cc(N(C)S(C)(=O)=O)c1)c1ccccc1`, the inhibition on Beta-secretase 1 [1] worked out at 29%.

`C[C@@H](NC(=O)c1cc(C(=O)N[C@@H](Cc2ccccc2)[C@@H](O)C(=O)Nc2ncc(Br)s2)cc(N(C)S(C)(=O)=O)c1)c1ccccc1`: on Beta-secretase 1 [1], the inhibition is 78%.

Regarding `C[C@@H](NC(=O)c1cc(C(=O)N[C@@H](Cc2ccccc2)[C@@H](O)C(=O)Nc2nnc(-c3ccccc3)s2)cc(N(C)S(C)(=O)=O)c1)c1ccccc1`, the inhibition at Beta-secretase 1 [1] is 43%.

`CSc1nnc(NC(=O)[C@H](O)[C@H](Cc2ccccc2)NC(=O)c2cc(C(=O)N[C@H](C)c3ccccc3)cc(N(C)S(C)(=O)=O)c2)s1`: the inhibition amounted to 84% at Beta-secretase 1 [1] and 43% at Beta-secretase 1 [2].

Regarding `C[C@@H](NC(=O)c1cc(C(=O)N[C@@H](Cc2ccccc2)[C@H](O)C(=O)Nc2nc3ccccc3s2)cc(N(C)S(C)(=O)=O)c1)c1ccccc1`, the inhibition at Beta-secretase 1 [1] is 5%.

`C[C@@H](NC(=O)c1cc(C(=O)N[C@@H](Cc2ccccc2)[C@@H](O)C(=O)Nc2nnc(C(C)(C)C)s2)cc(N(C)S(C)(=O)=O)c1)c1ccccc1`: the inhibition on Beta-secretase 1 [1] was determined as 48%.

As a reminder, the inhibition is the relative decrease from the control value, in per cent. The IC50 is the concentration needed to halve the response being measured.
